# Data taken from patent publication US4670258A, “Storable prepackaged aqueous solutions of vancomycin” (Vanderbilt University, priority 1984, dated 1987).
# Where two headings read alike, the source gives them in different places.
# Assays:
# [1] = Peptide binding to vancomycin studied by UV spectroscopy
# Source text: when studied by UV spectroscopy. The binding constants for the other
# [2] = no additive, HPLC
# Protocol: (§1) Solutions containing vancomycin (1 mmol) and peptide (either 1 mmol or 2 mmol) in a total volume of 2 ml (pH 4.1-4.2) were placed in screw-capped test tubes and heated at 80° C. for 17 hr. At the end of the reaction time aliquots of the reaction mixture were analyzed for vancomycin and its degradation products, CDP-I-Major (CDP-I-M) and CDP-I-minor (CDP-I-m), by HPLC (Harris, Kopecka and Harris (1983), J. Am. Chem. Soc. 105: 6915-6922).
# [3] = cited from earlier work
# Staphylococcus = conditions: cited from earlier work
# physchem = conditions: water, pH 4.15
# Protocol: as §1
# Protocol for B. subtilis: The protection of antibiotic activity of vancomycin by binding peptide is illustrated by the following experiment. Solutions containing vancomycin (2 mmol) and peptide 4 mmol) in a total volume of 1 ml (pH 4.40) were placed in screw-capped test tubes and heated at 80° C. for 66 h. The residual antibiotic activity was measured by the disc diffusion technique with B. subtilis as the test organism (Coller and Gralnick (1977), J. Clinical Investigation 60: 302-312; Crossley, Rotschafer, Chern, Mead and Zaske (1980), Antimicrob. Agents and Chemother. 17: 654-657).
# Vancomycin-peptide solutions were prepared as in the previous experiments and steam sterilized (15 psi) for 30 min. Antibiotic activity was measured as in Example II.
measurable binding to vancomycin [1],SMILES,% Vancomycin remaining (unheated control) [2],"% Activity (unheated) (B. subtilis; Table II, disc diffusion)","% Activity (unheated) (B. subtilis; Table III, disc diffusion)","% Activity (heated) (B. subtilis; heated 80° C. for 66 h, pH 4.40, disc diffusion)","% Activity (steam sterilized) (B. subtilis; steam sterilized (15 psi) for 30 min, disc diffusion)","storage stability in aqueous solution, refrigerated ([3]; refrigeration temperatures (viz. 5° C.))",potency and pH change in aqueous solution on storage ([3]; room temperature or prolonged storage under refrigeration),effectiveness against Staphylococcus (Staphylococcus),remaining at 17 h (physchem)
does not exhibit any measurable binding,CC(=O)N[C@H](C)C(=O)NCCC(=O)O [Ac--D-ala-β-ala],–,–,–,–,–,–,–,–,–
–,CN[C@H](CC(C)C)C(=O)N[C@H]1C(=O)N[C@@H](CC(N)=O)C(=O)N[C@H]2C(=O)N[C@H]3C(=O)N[C@H](C(=O)N[C@H](C(=O)O)c4cc(O)cc(O)c4-c4cc3ccc4O)[C@H](O)c3ccc(c(Cl)c3)Oc3cc2cc(c3O[C@@H]2O[C@H](CO)[C@@H](O)[C@H](O)[C@H]2O[C@H]2C[C@](C)(N)[C@H](O)[C@H](C)O2)Oc2ccc(cc2Cl)[C@H]1O [Vancomycin],92%,100%,100%,25%,58%,can be stored for several weeks,potency is lost and autogenous pH changes occur,particularly effective,49%
